Data as given in patent publication US5830909A (American Cyanamid Company, priority 1996, dated 1998).
pIC50: −log10 of the molar value. Counter-ions that a name gives are not always drawn. Like-named read-outs stand apart in the source and are kept apart here.

Molecular target: T1, AII receptor (Rattus norvegicus, UniProt P25095)
T1 construct: adipose tissue from the epididymal and retroperitoneal depots is quickly excised; from tissue; host or cells: membranes of collagenase-isolated adipocytes from epididymal and retroperitoneal fat of male Sprague-Dawley rats
T1 sequence (P25095 1-359): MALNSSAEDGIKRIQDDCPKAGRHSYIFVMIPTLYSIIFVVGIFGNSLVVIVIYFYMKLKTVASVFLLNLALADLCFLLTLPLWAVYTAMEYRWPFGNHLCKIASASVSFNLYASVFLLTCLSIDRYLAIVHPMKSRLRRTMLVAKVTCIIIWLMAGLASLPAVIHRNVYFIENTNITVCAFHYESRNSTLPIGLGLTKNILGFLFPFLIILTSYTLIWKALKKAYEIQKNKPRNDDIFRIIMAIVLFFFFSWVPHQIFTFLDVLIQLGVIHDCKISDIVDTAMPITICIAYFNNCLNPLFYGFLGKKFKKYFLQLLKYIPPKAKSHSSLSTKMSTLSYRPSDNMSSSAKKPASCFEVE
Assay: Displacement of 125I[Sar,Ile]AII binding in rat epididymal fat cell membranes
Settings: rat epididymal fat cell membranes (Table 8)
Text: The experimental design involves determining the binding characteristics of adipocyte membranes harvested from two different anatomic sites at three different ages. Male Sprague-Dawley rats (Charles River Laboratories, Wilmington, Mass.) are used at 40, 70 and 100 days of age. Rats are killed by carbon dioxide inhalation on the morning of the experiment, and adipose tissue from the epididymal and retroperitoneal depots is quickly excised and placed in cold saline. The spermatic artery and vein are removed from the epididymal fat, and brown fat deposits are dissected away from the retroperitoneal depot. The adipose tissue is weighed, minced into small pieces, and approximately 10 g each transferred to a flask containing 25 ml of Krebs-Ringer-bicarbonate buffer (KRB), 6 mM glucose and 50 mg of collagenase, pH 7.4. […] Intact adipocytes dissociated from the tissue pass freely into waiting tubes, while the undigested tissue is trapped on the screen. The tubes containing the adipocytes are washed an additional 4× with 20 ml each of cold Tris buffer (10 mM Tris HCl, pH 8.0) by first allowing the adipocytes to separate from the digestion medium by flotation, removing the infranatant through polyethylene tubing attached to a syringe, resuspending the cells in the Tris buffer, and repeating this procedure. Adipocyte membranes used for binding studies are prepared as follows. […] Following centrifugation, the fat cake and supernatant are carefully removed, and the pellet resuspended in 1 ml of Tris buffer. Protein content of the high speed pellet is determined, the resuspended protein is either assayed immediately or stored at -75° before binding assays are performed. […] The assay is initiated by the addition of the membrane protein, followed by incubation at 22° C. for 30 minutes in a slowly shaking water bath. Separation of bound from free radioactivity is achieved using any appropriate filtration apparatus. We use either a Millipore or Brandel model harvesting apparatus containing a Durapore or Whatman GF/B filter, followed by 6 additional rinses with 5 ml each of cold saline. The filters are placed in tubes, and radioactivity measured in a gamma scintillation counter programmed to correct for the half-life of the isotope. Using this experimental protocol, both the affinity (KD) and number of binding sites (Bmax) for angiotensin II on the adipocyte membrane can be calculated. The relative affinities of different anatomically distinct adipocyte membranes for a variety of peptide and nonpeptide antagonists can also be determined. […] Concentration ranges can be altered dependent upon the affinity of the particular antagonist for the fat cell membrane receptor.

[1] = read-out: Epididymal IC50 for displacement of 125I[Sar,Ile]AII binding
[2] = Epididymal IC50 for displacement of 125I[Sar,Ile]AII binding

Row | Compound | pIC50 [2] | pIC50 [1]
1 | CCCCc1nc2ccc([C@@H]3C[C@@H]4[C@H](O3)ON3[C@H]4CCC3(C)C)cc2c(=O)n1Cc1ccc(-c2ccccc2-c2nn[nH]n2)cc1 [[2S-(2α,3aα,3bβ,8aα)]-2-butyl-6-(6,6'-dimethyloctahydrofuro[3,2-d]pyrrolo[1,2-d]isoxazol-2-yl)-3-[[2'-(1H-tetrazol-5-yl)[1,1'-biphenyl]-4-yl]methyl]-4(3H)-quinazolinone] | – | 7.85
2 | CCCCc1nc2ccc(C3(C)CC(C(=O)OCC)=NO3)cc2c(=O)n1Cc1ccc(-c2ccccc2-c2nn[nH]n2)cc1 (centres unmarked) [5-[2-butyl-3,4-dihydro-4-oxo-3-[[2'-(1H-tetrazol-5-yl)[1,1'-biphenyl]-4-yl]methyl]-6-quinazolinyl]-4,5-dihyrdro-5-methyl-3-isoxazolecarboxylic acid ethyl ester] | 7.45 | –
3 | CCCCc1nc2ccc(C3=NN4CCCCC4C3)cc2c(=O)n1Cc1ccc(-c2ccccc2-c2nn[nH]n2)cc1 (centres unmarked) [2-butyl-6-(3,3a,4,5,6,7-hexahydropyrazolo[1,5-a]pyridin-2-yl)-3-[[2'-(1H-tetrazol-5-yl)[1,1'-biphenyl]-4-yl]methyl]-4(3H)-quinazolinone] | 7.06 | –
4 | 2-butyl-3,5,7,8-tetrahydro-3-[[2'-(1H-tetrazol-5-yl)[1,1'-biphenyl]-4-yl]methyl]-pyrido[4,3-d]pyrimidin-6(4H)-carboxylic acid phenylmethyl ester | – | 7.75
5 | CCCCc1nc2ccc(C3(C)NN[C@H]4C(=O)N(C)C(=O)[C@H]43)cc2c(=O)n1Cc1ccc(-c2ccccc2-c2nn[nH]n2)cc1 (relative stereo) [(3aα,6aα)-3-[2-butyl-3,4-dihydro-4-oxo-3-[[2'-(1H-tetrazol-5-yl)[1,1'-biphenyl]-4-yl]methyl]-6-quinazolinyl]-2,3,3a,6a-tetrahydro-3,5-dimethylpyrrolo[3,4-c]pyrazole-4,6-(1H,5H)-dione] | – | 6.26
6 | 2-butyl-5,6,7,8-tetrahydro-6-(2-hydroxy-2-methyl-1-oxopropyl)-3-[[2'-(1H-tetrazol-5-yl)[1,1'-biphenyl]-4-yl]methyl]-4(3H)-quinazolinone | – | 8.87
7 | CCCCc1nc2ccc(C3CC(c4ccc(C)cc4)=NO3)cc2c(=O)n1Cc1ccc(-c2ccccc2-c2nnn[nH]2)cc1 (centres unmarked) [2-butyl-6-[4,5-dihydro-3-(4-methylphenyl)-5-isoxazolyl]-3-[[2'-(1H-tetrazol-5-yl)[1,1'-biphenyl]-4-yl]methyl]-4(3H)-quinazolinone] | 6.90 | –
8 | CCCCc1nc2ccc(C3(C(=O)OC)CC4CCCN4O3)cc2c(=O)n1Cc1ccc(-c2ccccc2-c2nnn[nH]2)cc1 (mixture of isomers) [trans-(+/-)-2-[2-butyl-3,4-dihydro-4-oxo-3-[[2'-(1H-tetrazol-5-yl)[1,1'-biphenyl]-4-yl]methyl]-6-quinazolinyl]hexahydropyrrolo[1,2-b]isoxazole-2-carboxylic acid methyl ester monohydro] | 7.63 | –
9 | CCCCc1nc2ccc(COc3ccccc3)cc2c(=O)n1Cc1ccc(-c2ccccc2-c2nnn[nH]2)cc1 [2-butyl-6-(phenoxymethyl)-3-[[2'-(1H-tetrazol-5-yl)[1,1'-biphenyl]-4-yl]methyl]-4(3H)-quinazolinone] | 6.79 | –
10 | CCCCc1nc2ccc([C@@H]3C[C@@H](CO)ON3C)cc2c(=O)n1Cc1ccc(-c2ccccc2-c2nnn[nH]2)cc1 [(3S-trans)-2-butyl-6-[5-(hydroxymethyl)-2-methyl-3-isoxazolidinyl]-3-[[2'-(1H-tetrazol-5-yl)[1,1'-biphenyl]-4-yl]methyl]-4(3H)-quinazolinone] | 7.73 | –

Further compounds by rising pIC50 [2], results first:

Row | pIC50 [2] | Compound | pIC50 [1]
11 | 7.76 | CCCCc1nc2ccc(COc3ccccn3)cc2c(=O)n1Cc1ccc(-c2ccccc2-c2nn[nH]n2)cc1 [2-butyl-6-[(2-pyridinyloxy)methyl]-3-[[2'-(1H-tetrazol-5-yl)[1,1'-biphenyl]-4-yl]methyl]-4(3H)-quinazolinone hydrochloride] | –
12 | 8.09 | CCCCc1nc2ccc([C@H]3C[C@@H](CO)ON3C)cc2c(=O)n1Cc1ccc(-c2ccccc2-c2nnn[nH]2)cc1 [(3R-cis)-2-butyl-6-[5-(hydroxymethyl)-2-methyl-3-isoxazolidinyl]-3-[[2'-(1H-tetrazol-5-yl)[1,1'-biphenyl-4-yl]methyl]-4(3H)-quinazolinone] | –
13 | 8.10 | CCCCc1nc2ccc(C(C)(O)C3CCN(C)C3=O)cc2c(=O)n1Cc1ccc(-c2ccccc2-c2nn[nH]n2)cc1 (single isomer, unassigned) [2-butyl-6-[1-hydroxy-1-(1-methyl-2-oxo-3-pyrrolidinyl)ethyl]-3-[[2'-(1H-tetrazol-5-yl)[1,1'-biphenyl]-4-yl]methyl]-4(3H)-quinazolinone isomer 1] | –
14 | 8.25 | CCCc1nc(C)n2[nH]c(=O)nc2c1Cc1ccc(-c2ccccc2-c2nnn[nH]2)cc1 [5-methyl-7-propyl-8-[(2'-(1H-tetrazol-5-yl)biphenyl-4-yl)methyl]-1,2,4-triazolo[1,5-c]pyrimidin-2(3H)-one, reference compound] | –
15 | 8.50 | CCCCc1nc2ccc(C(O)C3CCCS3(=O)=O)cc2c(=O)n1Cc1ccc(-c2ccccc2-c2nn[nH]n2)cc1 (single isomer, unassigned) [2-butyl-6-[hydroxy(tetrahydro-2-thienyl)methyl]-3-[[2'-(1H-tetrazol-5-yl)[1,1'-biphenyl]-4-yl]methyl]-4(3H)-quinazolinone S,S-dioxide isomer 2] | –
16 | 8.61 | CCc1nc2c(C)cc(C)nc2n1Cc1ccc(-c2ccccc2-c2nnn[nH]2)cc1 [2-ethyl-5,7-dimethyl-3-[[2'-(1H-tetrazol-5-yl)[1,1-biphenyl]-4-yl]methyl]-3H-imidazo[4,5-b]pyridine, reference compound] | –
17 | 8.77 | CCCCc1nc2ccc(C(O)C3CCCS3(=O)=O)cc2c(=O)n1Cc1ccc(-c2ccccc2-c2nn[nH]n2)cc1 (single isomer, unassigned) [2-butyl-6-[hydroxy(tetrahydro-2-thienyl)methyl]-3-[[2'-(1H-tetrazol-5-yl)[1,1'-biphenyl]-4-yl]methyl]-4(3H)-quinazolinone S,S-dioxide isomer 1] | –
